Data on seven compounds can be found in ChEMBL document CHEMBL4334523, “Enzymatic Preparation of 2'-5',3'-5'-Cyclic Dinucleotides, Their Binding Properties to Stimulator of Interferon Genes Adaptor Protein, and Structure/Activity Correlations” (J Med Chem, 2019).

SMILES strings stand for the structures.

Series [1] has as its target T1, Stimulator of interferon genes protein (Homo sapiens, UniProt Q86WV6). Description: Activation of recombinant human wild-type STING expressed in 293T cells measured after 30 mins in presence of digitonin A by bright Glo-luciferase reporter gene assay. Type of series: cell-based. (In general: A reporter such as luciferase makes a cellular process visible.)
In series [2] the target is Stimulator of interferon genes protein (Homo sapiens, UniProt Q86WV6, R293Q). The series is described as follows: Activation of recombinant human STING haplotype R293Q mutant expressed in 293T cells measured after 30 mins in presence of digitonin A by bright Glo-luciferase reporter gene assay. Type of series: cell-based.
Stimulator of interferon genes protein (Homo sapiens, UniProt Q86WV6, R293Q), sequence (Q86WV6 whole entry R293Q): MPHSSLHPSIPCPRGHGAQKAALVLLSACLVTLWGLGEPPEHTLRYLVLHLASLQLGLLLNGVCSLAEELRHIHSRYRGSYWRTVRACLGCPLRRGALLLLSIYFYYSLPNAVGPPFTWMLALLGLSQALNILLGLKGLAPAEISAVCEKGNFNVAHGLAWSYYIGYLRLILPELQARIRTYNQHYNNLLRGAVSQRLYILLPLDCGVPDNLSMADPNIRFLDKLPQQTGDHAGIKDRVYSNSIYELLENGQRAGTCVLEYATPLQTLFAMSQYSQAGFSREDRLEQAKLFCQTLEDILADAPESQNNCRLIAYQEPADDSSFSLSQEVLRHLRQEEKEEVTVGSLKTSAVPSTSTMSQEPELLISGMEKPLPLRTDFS
Series [3] addresses Stimulator of interferon genes protein (Homo sapiens, UniProt Q86WV6, G230A/R293Q). The series is described as follows: Activation of recombinant human STING haplotype G230A/R293Q mutant expressed in 293T cells measured after 30 mins in presence of digitonin A by bright Glo-luciferase reporter gene assay. Type of series: cell-based.
For another series, the species on record is Homo sapiens. Type of series: cell-based.
Series [4] deals with T1, Stimulator of interferon genes protein.
Description: Binding affinity to recombinant human wild-type STING assessed as change in melting temperature at 150 uM by SYPRO orange dye based differential scanning fluorimetric method
The target is the same in series [5]. Description: Activation of recombinant human wild-type STING expressed in 293T cells incubated for 7 hrs in absence of digitonin A by bright Glo-luciferase reporter gene assay. Type of series: cell-based.
The test system of the next series is Monocyte. The series is described as follows: Cytotoxicity against human PBMC-derived monocytes assessed as CD3-negative CD14 positive monocyte viability at 12.5 uM incubated for 16 hrs by Zombie-NIR staining-based flow cytometry relative to control. Type of series: functional. Background: In flow cytometry, cells or beads pass a laser one at a time.
The target in series [6] is Stimulator of interferon genes protein (Homo sapiens, UniProt Q86WV6, G230A/R293Q/R71H). Description: Activation of recombinant human STING haplotype R71H/G230A/R293Q mutant expressed in 293T cells measured after 30 mins in presence of digitonin A by bright Glo-luciferase reporter gene assay. Type of series: cell-based.
Stimulator of interferon genes protein (Homo sapiens, UniProt Q86WV6, G230A/R293Q/R71H), sequence (Q86WV6 whole entry R71H/G230A/R293Q): as the sequence (Q86WV6 whole entry R293Q) above, with R71H, G230A counted along it
Series [7] can be described thus: Cytotoxicity against human PBMC-derived CD3-positive T cells assessed as effect on cell viability at 12.5 uM incubated for 16 hrs by Zombie-NIR staining-based flow cytometry.
Another series is described as follows: cells. Conditions: Homo sapiens, HEK-293T, 0.5 h.

T1 sequence (Q86WV6 whole entry): as the sequence (Q86WV6 whole entry R293Q) above, with Q293R counted along it
Stimulator of interferon genes protein (Homo sapiens, UniProt Q86WV6, G230A/R293Q), sequence (Q86WV6 whole entry G230A/R293Q): as the sequence (Q86WV6 whole entry R293Q) above, with G230A counted along it
Description for cells: Activation of recombinant human STING haplotype R232H mutant expressed in 293T cells measured after 30 mins in presence of digitonin A by bright Glo-luciferase reporter gene assay

In general, EC50 refers to the concentration at which the effect is half-maximal. In general, ΔTm refers to the shift of the melting midpoint relative to a reference. Turning to `Nc1nc2c([C@@H]3O[C@@H]4COP(=O)(O)O[C@H]5[C@@H](O)[C@H](n6cnc7c(N)ncnc76)O[C@@H]5COP(=O)(O)O[C@@H]3[C@@H]4O)scc2c(=O)[nH]1`, the EC50 in series [1] was found to be 110 nM; in series [2], 3000 nM; in series [3], 50 nM; in [5], 241000 nM; in series [6] it was 250 nM; in the series “cells”, 6000 nM. Also, the max activation in the series listed under Homo sapiens was less than 30%. Moreover, in [4], the ΔTm was found to be 2.8 °C. In addition, the Activity was 0.9% in the series with Monocyte and “Non-Toxic” in series [7].

On to `CSc1ncnc2c1ncn2[C@@H]1O[C@@H]2COP(=O)(O)O[C@@H]3[C@H](O)[C@@H](COP(=O)(O)O[C@H]2[C@H]1O)O[C@H]3n1cnc2c(=O)[nH]c(N)nc21`, for which the EC50 was 10 nM in series [1]; 1230 nM in series [2]; 60 nM in series [3]; 13300 nM in [5]; 60 nM in series [6]; 2300 nM in “cells”. Also, in the series listed under Homo sapiens, the max activation is less than 30%. The ΔTm in series [4] was determined as 8.3 °C. Besides, the Activity with Monocyte is 0.4%; in [7], “Non-Toxic”.

Consider `CSc1nc(N)nc2c1ncn2[C@@H]1O[C@@H]2COP(=O)(O)O[C@@H]3[C@H](O)[C@@H](COP(=O)(O)O[C@H]2[C@H]1O)O[C@H]3n1cnc2c(=O)[nH]c(N)nc21`, for which the EC50 in [1] was 300 nM; in series [2], 8500 nM; in series [3], 240 nM; in series [5] it was greater than 300000 nM; in [6] it was 480 nM; in “cells”, 27600 nM. In the series filed under Homo sapiens, this compound had a max activation of less than 30%. The ΔTm in [4] was 3.5 °C. For the same compound, the Activity in the series with Monocyte is given as 4.8%; in [7], “Non-Toxic”.

As for `CNc1ncnc2c1ncn2[C@@H]1O[C@@H]2COP(=O)(O)O[C@@H]3[C@H](O)[C@@H](COP(=O)(O)O[C@H]2[C@H]1O)O[C@H]3n1cnc2c(=O)[nH]c(N)nc21`, the EC50 came to 20 nM in series [1]; 1200 nM in series [2]; 60 nM in series [3]; 63700 nM in series [5]; 60 nM in series [6]; 700 nM in “cells”. This compound came in with a max activation in the series listed under Homo sapiens of less than 30%. Further, the ΔTm in series [4] is 9 °C. The Activity is listed as 0.8% with Monocyte and “Non-Toxic” in series [7].

`Nc1nc(N)c2ncn([C@@H]3O[C@@H]4COP(=O)(O)O[C@@H]5[C@H](O)[C@@H](COP(=O)(O)O[C@H]4[C@H]3F)O[C@H]5n3cnc4c(=O)[nH]c(N)nc43)c2n1`: the EC50 in series [1] amounted to 20 nM; in series [2] it was 130 nM; in series [3], 30 nM; in series [5], 27600 nM; in series [6], 40 nM; in “cells” it was 170 nM. In addition, in the series listed under Homo sapiens, the max activation was less than 30%. In [4], the ΔTm is 14.4 °C. The values for the Activity (in the series on Monocyte; in series [7]) were 2.5% and “Non-Toxic”, respectively.

As for `Nc1nc2c(ncn2[C@@H]2O[C@@H]3COP(=O)(O)O[C@H]4[C@H](O)[C@H](n5cnc6c(N)nc(F)nc65)O[C@@H]4COP(=O)(O)O[C@@H]2[C@@H]3O)c(=O)[nH]1`, the EC50 is 200 nM in [1]; 600 nM in [2]; 60 nM in series [3]; 187000 nM in series [5]; 100 nM in [6]; 6400 nM in the series “cells”. The compound further yielded a max activation in the series filed under Homo sapiens of less than 30%. Moreover, in [4], the ΔTm came to 12.3 °C. Also, the Activity in the series with Monocyte was 3%; in [7] it was “Non-Toxic”.

For `Nc1nc2c(ccn2[C@@H]2O[C@@H]3COP(=O)(O)O[C@H]4[C@@H](O)[C@H](n5cnc6c(N)ncnc65)O[C@@H]4COP(=O)(O)O[C@@H]2[C@@H]3O)c(=O)[nH]1`, the EC50 in [1] was 40 nM; in series [2], 1100 nM; in series [3], 60 nM; in [5], 40400 nM; in series [6], 100 nM; in the series “cells”, 3500 nM. Further, the max activation in the series listed under Homo sapiens is less than 30%. For the same compound, the ΔTm in series [4] was determined as 6.6 °C. In addition, the Activity with Monocyte is listed as 0.9%; in series [7], “Non-Toxic”.
